According to PMC10303059, “Chloroquine and Hydroxychloroquine, as Proteasome Inhibitors, Upregulate the Expression and Activity of Organic Anion Transporter 3” (Pharmaceutics, 2023):

System: T1, 20S proteasome
T1 construct: gene PSMB5; endogenous proteasome of COS-7 cells expressing OAT3; with Proteasome subunit beta type-6; Proteasome subunit beta type-7; Proteasome subunit beta type-1; Proteasome subunit beta type-2; Proteasome subunit beta type-3; Proteasome subunit beta type-4; Proteasome subunit alpha type-1; Proteasome subunit alpha type-2; Proteasome subunit alpha type-3; Proteasome subunit alpha type-4; Proteasome subunit alpha type-5; Proteasome subunit alpha type-6; Proteasome subunit alpha type-7
Experiment: […] proteasome assay kit (fluorescence) after treatment of intact cells
Type: cell-based
Conditions: OAT3-expressing COS-7 cells treated 4 h; range over 10-100 µM; direct binding not shown

CCN(CCO)CCCC(C)Nc1ccnc2cc(Cl)ccc12 (stereo not shown) [Hydroxychloroquine]
% inhibition at 10-100 μM: 23–61%
